Assay results as given in patent publication US8071645B2, “Systems and methods for treating human inflammatory and proliferative diseases and wounds, with fatty acid metabolism inhibitors and/or glycolytic inhibitors” (The Regents of the University of Colorado, priority 2003, dated 2011).

Key:
[1] = system: cell-surface Fas on drug resistant L1210/DDP cells; assay: cell-surface Fas expression on L1210/DDP cells by flow cytometry; assay type: cell-based
Procedure: (§1) Flow Cytometry. Cells were harvested, counted, and resuspended at 10^6 cells/100 μl of PBS containing 2.5% fetal calf serum in preparation for flow cytometric analysis. Cells were stained for intracellular H202 using 6-carboxy-2′,7′-dichlorodihydrofluorescein diacetate (DCF-DA, Molecular Probes, Eugene, Oreg.). Briefly, cells were incubated at 37° with 1 mM DCF-DA for 20 minutes, washed twice in PBS containing 2.5% fetal calf serum and analyzed flow cytometrically. Mitochondrial membrane potential was assessed using Mitotracker Red (CM-H2XROS, Molecular Probes, Eugene, Oreg.). […] The cells were incubated at 37° for 20 minutes, washed twice in PBS containing 2.5% fetal calf serum and analyzed flow cytometrically. Data were acquired on a Coulter Elite Epics or Excel flow cytometer (Coulter, Hialeah, Fla.) and analyzed with CellQuest software, (Becton Dickinson, San Jose, Calif.). […] Each sample population was classified for cell size (forward scatter) and complexity (side scatter), gated on a population of interest and evaluated using 5,000 cells. […]
Drug sensitive L1210 cells and drug resistant L1210/DDP cells were cultured with etomoxir for 24 hours (Tx indicates treatment with etomoxir). The level of cell-surface Fas was determined using fluorochrome conjugated anti-Fas antibodies and flow cytometry. The Fas levels are measured relative to a control for staining artifacts. […]

L1210 DDP cells = assay: mitochondrial membrane potential (MitoTracker) of L1210 DDP cells; assay type: cell-based; conditions: 24 hours of incubation, FIG. 11
Procedure: as §1
We measured the effects of etomoxir on metabolism by measuring mitochondrial membrane potential with a fluorescent dye (Mitotracker Red, Molecular Probes, Eugene, Oreg.) which fluoresces as a function of mitochondrial potential. […]

[2] = system: cell surface UCP2 on A-204 human rhabdomyosarcoma cells; assay: cell surface UCP2 expression on A-204 cells by flow cytometry; assay type: cell-based; conditions: 24, 48, & 72 hours, FIG. 26
Procedure: Cell Surface Staining. Non-permeabilized cells were stained with antibodies to the cell surface receptors Fas (CD95) (Pharmingen) or with antibodies to uncoupling proteins (anti-UCP2 antibody) (Alpha Diagnostic International). Antibodies for both the isotype control and actual stain were added to the cell suspension, mixed, and then placed on ice for and incubation of 25 minutes in the dark. Subsequently the cells were centrifuged at 300×g for 5 minutes and the supernatant removed. The cells were washed one time with 100 μL of PBS/2.5% FBS and then transferred into flow cytometric tubes containing 500 μL of PBS/2.5% FBS for analysis.
A204 human rhabdomyosarcoma cells were cultured at a concentration of 0.5 to 1 million cells per ml. Cells were untreated or treated with etomoxir at concentrations indicated in FIG. 24 for 24, 48, & 72 hours. Cells were harvested and analyzed by flow cytometry. Dot plots are shown in FIG. 24 as functions of live versus dead cells. […] Five thousand cells were assessed for forward scatter (FS), as a function of cell size, versus side scatter (SS), as a function of cellular granularity. […]
Cells were untreated or treated with etomoxir at the concentration indicated in FIG. 26 at the indicated concentration for 24, 48, & 72 hours. Cells were harvested, stained with fluorochrome conjugated with anti-UCP2 antibody and analyzed by flow cytometry.

HL60 MDR tumor = HL60 MDR tumor implanted in nude mice, tumor volume; assay type: in vivo
Excerpt: Tumor implantation. Mice were purchased from the Animal Production Program of National Cancer Institute, Frederick, Md. The animals used were Athymic Ncr-nu/nu (strain code 01B74). HL60 MDR cells were harvested and reconstituted at 1 million cells per 100 microliters of phosphate buffered saline. One million tumor cells per injection site were implanted subcutaneously on two sites of the animal's back. Treatments began at exactly seven days post tumor implantation. Tumor size/volume was monitored twice weekly using measurement calipers, with the formula Tumor Volume=π×(short diameter)^2×(long diameter)/6.
Mice experiments with fatty acid metabolism and glycolytic inhibitors. Fatty acid metabolism inhibitors were exemplified by etomoxir at 200 micrograms/day. Glycolytic inhibitors were exemplified by 2-deoxy-D-glucose at 2.5 mM in 100 microliters daily. The combination was administered daily, etomoxir at 200 micrograms and 2-deoxy-D-glucose at 2.5 mM in 100 microliters. All drugs were administered intra-peritoneally. 5-Fluoro-uracil, at 20 mg per kilogram mouse, was injected intra-peritoneally once a week
HL60 MDR human leukemia cells were cultured and implanted in nude mice as described above under “Materials and Methods”. The mice were given 200 ug of Etomoxir, 2.5 mM 2-Deoxy-D-glucose, or both 200 ug of Etomoxir and 2.5 mM 2-Deoxy-D-glucose given daily by IP injection. Treatment began exactly one week after tumor implantation.

**Q.** What does the source list for CCOC(=O)C1(CCCCCCOc2ccc(Cl)cc2)CO1 (stereo not drawn) [etomoxir, 2-(6-(4-chlorophenoxy)-hexyl)-oxirane-2-carboxylic acid ethyl ester]?
**A.** cell surface Fas ([1]; L1210/DDP, cultured with etomoxir for 24 hours, FIG. 7): significant increases; cell surface Fas on methotrexate-treated cells ([1]; L1210 DDP, etomoxir with methotrexate, FIG. 8): promotes increases; mitochondrial membrane potential (MitoTracker) (L1210 DDP cells): increase; cell surface UCP2 expression in the live cells [2]: time dependent “fold” increases; tumor growth versus control (HL60 MDR tumor; 21 day period, single agent): increase in tumor growth; tumor volume, Day 7 (HL60 MDR tumor; Day 7 after implantation (start of treatment), 200 ug Etomoxir and/or 2.5 mM 2-Deoxy-D-glucose daily IP): 36 mm^3; tumor volume, Day 9 (HL60 MDR tumor; Day 9, 200 ug Etomoxir and/or 2.5 mM 2-Deoxy-D-glucose daily IP): 71.73 mm^3; tumor volume, Day 15 (HL60 MDR tumor; Day 15, 200 ug Etomoxir and/or 2.5 mM 2-Deoxy-D-glucose daily IP): 261.35 mm^3; tumor volume, Day 21 (HL60 MDR tumor; Day 21, 200 ug Etomoxir and/or 2.5 mM 2-Deoxy-D-glucose daily IP): 895.09 mm^3
